{"source": "patent US6346201B1", "about": "“Ozonated solutions of tetrasilver tetroxide” (priority 2000, dated 2002)", "key": {"[1]": {"tested_on": "Bacillus subtilis spores", "assay": "Bacillus subtilis spore survival by MALS, AODC and 24-hour CFU count", "format": "cell-based", "experimental": "The efficacy of ozone in the absence of tetrasilver tetroxide was evaluated by challenging Bacillus subtilis spores with 2 ppm ozone and measuring the survival rate over time by MALS, acridine orange direct counts (AODC) and by counting colony forming units (CFU) at 24 hours.\nBacillus subtilus spore suspensions in water were challenged with 2 ppm tetrasilver tetroxide and […] ozone to evaluate the killing efficacy of the combination. The survival rate over time was measured by MALS, AODC and counting colony forming units at 24 hours."}, "[2]": {"tested_on": "E. coli", "assay": "Ozone kill of E. coli test culture", "format": "cell-based", "conditions": "3.2 ppm ozone, 1 minute", "experimental": "(§1) Ozone is, of course, effective against enteric pathogens. For example, adding 3.2 ppm 03 to a test culture kills 1.95×10^6 cells/mL of E. coli in 1 minute and kills 1.5×10^6 cells/mL of P. aeruginosa in 1 minute."}, "[3]": {"tested_on": "P. aeruginosa", "assay": "Ozone kill of P. aeruginosa test culture", "format": "cell-based", "conditions": "3.2 ppm ozone, 1 minute", "experimental": "as §1"}, "[4]": {"experimental": "Ozone concentrations were measured by a chemical oxidation of indigo dye by using an indigo dye […] manufactured by HACH, Inc.\n6.1 mg/L (6.1 ppm) of ozone was provided in deionized, distilled water over a 15 minute period. The solution was allowed to stand with stirring by a magnetic stirrer over a 24-hour period, taking periodic readings of the ozone concentration."}, "[5]": {"tested_on": "E. coli K12", "conditions": "10 ppm or less tetrasilver tetroxide, within 30 minutes, other studies; cited from earlier work"}, "[6]": {"conditions": "B. subtilis spores, 2 ppm ozone, treatment time 0"}, "[7]": {"conditions": "B. subtilis spores, 2 ppm ozone, treatment time 5"}, "[8]": {"conditions": "B. subtilis spores, 2 ppm ozone, treatment time 10"}, "[9]": {"conditions": "B. subtilis spores, 2 ppm ozone, treatment time 15"}, "[10]": {"conditions": "B. subtilis spores, 2 ppm ozone, treatment time 20"}, "[11]": {"conditions": "B. subtilis spores, 2 ppm ozone, treatment time 30"}}, "note": "Read-outs that look alike come from different tables or passages of the source."}
{"smiles": "O=[O+][O-]", "note": "[ozone]", "values": [{"measurement": "MALS log intensity vs time of exposure (FIG. 1)", "setting": "[1]; B. subtilis spores, 2 ppm ozone, increasing time of exposure", "result": "reduction in the log intensity"}, {"measurement": "24-Hour Count", "setting": "[1]; [6]", "result": "2.10 × 10^6 cfu/mL"}, {"measurement": "24-Hour Count % AODC", "setting": "[1]; [6]", "result": 100, "unit": "% AODC"}, {"measurement": "24-Hour Count % control", "setting": "[1]; [6]", "result": 100, "unit": "% control"}, {"measurement": "AODC", "setting": "[1]; [6]", "result": "2.34 × 10^6 spores/mL"}, {"measurement": "AODC % control", "setting": "[1]; [6]", "result": 100, "unit": "% control"}, {"measurement": "MALS % control", "setting": "[1]; [6]", "result": 100, "unit": "% control"}, {"measurement": "MALS intensity", "setting": "[1]; [6]", "result": 2436.6}, {"measurement": "24-Hour Count", "setting": "[1]; [7]", "result": "1.23 × 10^6 cfu/mL"}, {"measurement": "24-Hour Count % AODC", "setting": "[1]; [7]", "result": 76.9, "unit": "% AODC"}, {"measurement": "24-Hour Count % control", "setting": "[1]; [7]", "result": 58.5, "unit": "% control"}, {"measurement": "AODC", "setting": "[1]; [7]", "result": "1.6 × 10^6 spores/mL"}, {"measurement": "AODC % control", "setting": "[1]; [7]", "result": 68.3, "unit": "% control"}, {"measurement": "MALS % control", "setting": "[1]; [7]", "result": 65.33, "unit": "% control"}, {"measurement": "MALS intensity", "setting": "[1]; [7]", "result": 1591.92}, {"measurement": "24-Hour Count", "setting": "[1]; [8]", "result": "1.68 × 10^5 cfu/mL"}, {"measurement": "24-Hour Count % AODC", "setting": "[1]; [8]", "result": 14.5, "unit": "% AODC"}, {"measurement": "24-Hour Count % control", "setting": "[1]; [8]", "result": 8.0, "unit": "% control"}, {"measurement": "AODC", "setting": "[1]; [8]", "result": "1.16 × 10^6 spores/mL"}, {"measurement": "AODC % control", "setting": "[1]; [8]", "result": 49.5, "unit": "% control"}, {"measurement": "MALS % control", "setting": "[1]; [8]", "result": 51.89, "unit": "% control"}, {"measurement": "MALS intensity", "setting": "[1]; [8]", "result": 1264.26}, {"measurement": "24-Hour Count", "setting": "[1]; [9]", "result": "1.80 × 10^3 cfu/mL"}, {"measurement": "24-Hour Count % AODC", "setting": "[1]; [9]", "result": 0.14, "unit": "% AODC"}, {"measurement": "24-Hour Count % control", "setting": "[1]; [9]", "result": 0.09, "unit": "% control"}, {"measurement": "AODC", "setting": "[1]; [9]", "result": "1.29 × 10^6 spores/mL"}, {"measurement": "AODC % control", "setting": "[1]; [9]", "result": 55.1, "unit": "% control"}, {"measurement": "MALS % control", "setting": "[1]; [9]", "result": 42.67, "unit": "% control"}, {"measurement": "MALS intensity", "setting": "[1]; [9]", "result": 1039.64}, {"measurement": "24-Hour Count", "setting": "[1]; [10]", "result": "1.82 × 10^2 cfu/mL"}, {"measurement": "24-Hour Count % AODC", "setting": "[1]; [10]", "result": 0.04, "unit": "% AODC"}, {"measurement": "24-Hour Count % control", "setting": "[1]; [10]", "result": 0.009, "unit": "% control"}, {"measurement": "AODC", "setting": "[1]; [10]", "result": "4.87 × 10^5 spores/mL"}, {"measurement": "AODC % control", "setting": "[1]; [10]", "result": 20.8, "unit": "% control"}, {"measurement": "MALS % control", "setting": "[1]; [10]", "result": 34.94, "unit": "% control"}, {"measurement": "MALS intensity", "setting": "[1]; [10]", "result": 851.5}, {"measurement": "24-Hour Count", "setting": "[1]; [11]", "result": 10, "unit": "cfu/mL"}, {"measurement": "24-Hour Count % AODC", "setting": "[1]; [11]", "result": 0.002, "unit": "% AODC"}, {"measurement": "24-Hour Count % control", "setting": "[1]; [11]", "result": 0.00005, "unit": "% control"}, {"measurement": "AODC", "setting": "[1]; [11]", "result": "5.03 × 10^5 spores/mL"}, {"measurement": "AODC % control", "setting": "[1]; [11]", "result": 21.5, "unit": "% control"}, {"measurement": "MALS % control", "setting": "[1]; [11]", "result": 27.96, "unit": "% control"}, {"measurement": "MALS intensity", "setting": "[1]; [11]", "result": 681.2}, {"measurement": "antimicrobial effect (MALS graph, FIG. 3)", "setting": "[1]; twenty-minute treatment with 0.3 ppm ozone", "result": "significant killing effect"}, {"measurement": "cells killed", "setting": "[2]", "result": "1.95×10^6 cells/mL"}, {"measurement": "cells killed", "setting": "[3]", "result": "1.5×10^6 cells/mL"}, {"measurement": "ozone at 18 hours relative to that expected in the absence of tetrasilver tetroxide", "setting": "[4]; 2 ppm tetrasilver tetroxide added, 18 hours", "result": "approximately an order of magnitude higher"}, {"measurement": "ozone concentration", "setting": "[4]; 2 ppm tetrasilver tetroxide added, after 18 hours", "result": 0.12, "unit": "ppm"}, {"measurement": "ozone oxidizing activity", "setting": "[4]; 2 ppm tetrasilver tetroxide added, by 24 hours", "result": 0.03, "unit": "ppm"}, {"measurement": "half-life of ozone", "setting": "[4]; 6.1 ppm ozone initially in deionized, distilled water, no tetrasilver tetroxide", "result": "approximately 2 hours"}, {"measurement": "ozone concentration", "setting": "[4]; 6.1 ppm ozone initially in deionized, distilled water, stirred, by 2 hours", "result": 3, "unit": "ppm"}, {"measurement": "ozone concentration", "setting": "[4]; 6.1 ppm ozone initially in deionized, distilled water, stirred, by 18 hours", "result": 0.01, "unit": "ppm"}]}
{"smiles": "[Ag+].[Ag+].[Ag+].[Ag+].[O-2].[O-2].[O-2].[O-2]", "note": "[tetrasilver tetroxide]", "values": [{"measurement": "antimicrobial effect (MALS graph, FIG. 3)", "setting": "[1]; sixty-minute treatment with 2 ppm tetrasilver tetroxide", "result": "little more effective than the untreated control"}, {"measurement": "measurable oxidation as measured by the indigo dye method", "setting": "[4]; without ozone", "result": "neither"}, {"measurement": "kills % of E. coli K12 strain", "setting": "[5]", "result": 100, "unit": "%"}]}
